# Organism: Rattus norvegicus
# Test: Open TG-GATES - Regimen: Single
# Assay type: toxicity, organism-based, Sprague-Dawley
# Design: regimen Single, gender Male, age 6 weeks
# Details: in vivo, po, route gavage; for Bas / Eos / Fbg / Hb / Ht / Lym / MCH / MCHC / MCV / Mono / Neu / PT / Plat / RBC / Ret / WBC: tissue Blood; for KIDNEY_L / KIDNEY_R / KIDNEY_TOTAL: tissue Kidney; for LIVER: tissue Liver; for ALP / ALT / AST / BUN / CRE / Ca / Cl / DBIL / GLC / IP / K / LDH / Na / PL / RALB / TBIL / TC / TG / TP / gamma-GTP: tissue Plasma
# [1] = 0 mg/kg, 3 h, dose level Control
# [2] = 0 mg/kg, 6 h, dose level Control
# [3] = 0 mg/kg, 9 h, dose level Control
# [4] = 0 mg/kg, 24 h, dose level Control
compound,measurement,setting,value
CN(C)CCCN1c2ccccc2Sc2ccc(Cl)cc21 [CHLORPROMAZINE],TERMINAL_BW,[1],223.8 g
same,Bas,[1],0%
same,Eos,[1],1.2%
same,Fbg,[1],223.6 mg/dL
same,Hb,[1],13.7 g/dL
same,Ht,[1],39.3%
same,Lym,[1],76%
same,MCH,[1],21.8 pg
same,MCHC,[1],34.7%
same,MCV,[1],62.7 fL
same,Mono,[1],2.6%
same,Neu,[1],18.8%
same,PT,[1],12.5 s
same,Plat,[1],116.1 x10_4/uL
same,RBC,[1],627.6 x10_4/ul
same,Ret,[1],7.6%
same,WBC,[1],91.8 x10_2/uL
same,KIDNEY_L,[1],1 g
same,KIDNEY_R,[1],1 g
same,KIDNEY_TOTAL,[1],2 g
same,LIVER,[1],10 g
same,ALP,[1],1021.8 IU/L
same,ALT,[1],37.6 IU/L
same,AST,[1],78.8 IU/L
same,BUN,[1],12.2 mg/dL
same,CRE,[1],0.4 mg/dL
same,Ca,[1],10.8 mg/dL
same,Cl,[1],103.2 meq/L
same,DBIL,[1],0.064 mg/dL
same,GLC,[1],190 mg/dL
same,IP,[1],8.5 mg/dL
same,K,[1],4 meq/L
same,LDH,[1],227.2 IU/L
same,Na,[1],141.6 meq/L
same,PL,[1],131.8 mg/dL
same,RALB,[1],3.5 g/dL
same,TBIL,[1],0.1 mg/dL
same,TC,[1],67.6 mg/dL
same,TG,[1],62.6 mg/dL
same,TP,[1],5.5 g/dL
same,gamma-GTP,[1],1 IU/L
same,TERMINAL_BW,[2],217.9 g
same,Bas,[2],0%
same,Eos,[2],1%
same,Fbg,[2],227.4 mg/dL
same,Hb,[2],13.4 g/dL
same,Ht,[2],38.8%
same,Lym,[2],77.2%
same,MCH,[2],21.1 pg
same,MCHC,[2],34.5%
same,MCV,[2],61.2 fL
same,Mono,[2],2.8%
same,Neu,[2],17.4%
same,PT,[2],12.5 s
same,Plat,[2],113.2 x10_4/uL
same,RBC,[2],634 x10_4/ul
same,Ret,[2],7.6%
same,WBC,[2],104.6 x10_2/uL
same,KIDNEY_L,[2],1 g
same,KIDNEY_R,[2],1 g
same,KIDNEY_TOTAL,[2],1.9 g
same,LIVER,[2],9.2 g
same,ALP,[2],816 IU/L
same,ALT,[2],33.6 IU/L
same,AST,[2],79.8 IU/L
same,BUN,[2],9 mg/dL
same,CRE,[2],0.4 mg/dL
same,Ca,[2],10.7 mg/dL
same,Cl,[2],103.4 meq/L
same,DBIL,[2],0.066 mg/dL
same,GLC,[2],190 mg/dL
same,IP,[2],9.4 mg/dL
same,K,[2],3.9 meq/L
same,LDH,[2],221.2 IU/L
same,Na,[2],141.8 meq/L
same,PL,[2],133.6 mg/dL
same,RALB,[2],3.4 g/dL
same,TBIL,[2],0.1 mg/dL
same,TC,[2],75.8 mg/dL
same,TG,[2],56.2 mg/dL
same,TP,[2],5.4 g/dL
same,gamma-GTP,[2],0.8 IU/L
same,TERMINAL_BW,[3],219.8 g
same,Bas,[3],0.4%
same,Eos,[3],0.6%
same,Fbg,[3],227 mg/dL
same,Hb,[3],13.2 g/dL
same,Ht,[3],38.2%
same,Lym,[3],78.8%
same,MCH,[3],21.7 pg
same,MCHC,[3],34.5%
same,MCV,[3],63 fL
same,Mono,[3],2.6%
same,Neu,[3],16.6%
same,PT,[3],12.6 s
same,Plat,[3],122.8 x10_4/uL
same,RBC,[3],606.2 x10_4/ul
same,Ret,[3],8.3%
same,WBC,[3],82.3 x10_2/uL
same,KIDNEY_L,[3],1 g
same,KIDNEY_R,[3],1 g
same,KIDNEY_TOTAL,[3],2 g
same,LIVER,[3],9 g
same,ALP,[3],922.2 IU/L
same,ALT,[3],30.6 IU/L
same,AST,[3],68 IU/L
same,BUN,[3],11.4 mg/dL
same,CRE,[3],0.4 mg/dL
same,Ca,[3],10.7 mg/dL
same,Cl,[3],104 meq/L
same,DBIL,[3],0.066 mg/dL
same,GLC,[3],203.4 mg/dL
same,IP,[3],10.2 mg/dL
same,K,[3],3.8 meq/L
same,LDH,[3],180.2 IU/L
same,Na,[3],141.8 meq/L
same,PL,[3],132.6 mg/dL
same,RALB,[3],3.3 g/dL
same,TBIL,[3],0.1 mg/dL
same,TC,[3],69.8 mg/dL
same,TG,[3],59.2 mg/dL
same,TP,[3],5.4 g/dL
same,gamma-GTP,[3],1 IU/L
same,TERMINAL_BW,[4],233.7 g
same,Bas,[4],0.8%
same,Eos,[4],1.2%
same,Fbg,[4],230.4 mg/dL
same,Hb,[4],13 g/dL
same,Ht,[4],38.5%
same,Lym,[4],79%
same,MCH,[4],21.2 pg
same,MCHC,[4],33.8%
same,MCV,[4],62.8 fL
same,Mono,[4],3%
same,Neu,[4],15.8%
same,PT,[4],11.7 s
same,Plat,[4],133.9 x10_4/uL
same,RBC,[4],613.8 x10_4/ul
same,Ret,[4],7.4%
same,WBC,[4],115.9 x10_2/uL
same,KIDNEY_L,[4],1 g
same,KIDNEY_R,[4],1 g
same,KIDNEY_TOTAL,[4],2 g
same,LIVER,[4],10.7 g
same,ALP,[4],1074.4 IU/L
same,ALT,[4],34.8 IU/L
same,AST,[4],73.8 IU/L
same,BUN,[4],16 mg/dL
same,CRE,[4],0.5 mg/dL
same,Ca,[4],10.8 mg/dL
same,Cl,[4],103.8 meq/L
same,DBIL,[4],0.058 mg/dL
same,GLC,[4],203 mg/dL
same,IP,[4],7 mg/dL
same,K,[4],4 meq/L
same,LDH,[4],192.2 IU/L
same,Na,[4],141.2 meq/L
same,PL,[4],140 mg/dL
same,RALB,[4],3.4 g/dL
same,TBIL,[4],0.1 mg/dL
same,TC,[4],78.6 mg/dL
same,TG,[4],80.2 mg/dL
same,TP,[4],5.6 g/dL
same,gamma-GTP,[4],1 IU/L
same,TERMINAL_BW,"45 mg/kg, 3 h, dose level Low",220 g
same,Bas,"45 mg/kg, 3 h, dose level Low",0%
same,Eos,"45 mg/kg, 3 h, dose level Low",1%
same,Fbg,"45 mg/kg, 3 h, dose level Low",221.8 mg/dL
same,Hb,"45 mg/kg, 3 h, dose level Low",12.5 g/dL
same,Ht,"45 mg/kg, 3 h, dose level Low",36.7%
same,Lym,"45 mg/kg, 3 h, dose level Low",79.4%
same,MCH,"45 mg/kg, 3 h, dose level Low",21 pg
same,MCHC,"45 mg/kg, 3 h, dose level Low",33.9%
same,MCV,"45 mg/kg, 3 h, dose level Low",61.9 fL
same,Mono,"45 mg/kg, 3 h, dose level Low",2.2%
same,Neu,"45 mg/kg, 3 h, dose level Low",17%
same,PT,"45 mg/kg, 3 h, dose level Low",12.1 s
same,Plat,"45 mg/kg, 3 h, dose level Low",127.9 x10_4/uL
same,RBC,"45 mg/kg, 3 h, dose level Low",594 x10_4/ul
same,Ret,"45 mg/kg, 3 h, dose level Low",7.8%
same,WBC,"45 mg/kg, 3 h, dose level Low",55.8 x10_2/uL
same,KIDNEY_L,"45 mg/kg, 3 h, dose level Low",0.9 g
same,KIDNEY_R,"45 mg/kg, 3 h, dose level Low",0.9 g
same,KIDNEY_TOTAL,"45 mg/kg, 3 h, dose level Low",1.8 g
same,LIVER,"45 mg/kg, 3 h, dose level Low",10.3 g
same,ALP,"45 mg/kg, 3 h, dose level Low",910.4 IU/L
same,ALT,"45 mg/kg, 3 h, dose level Low",31.6 IU/L
same,AST,"45 mg/kg, 3 h, dose level Low",66.4 IU/L
same,BUN,"45 mg/kg, 3 h, dose level Low",10.2 mg/dL
same,CRE,"45 mg/kg, 3 h, dose level Low",0.4 mg/dL
same,Ca,"45 mg/kg, 3 h, dose level Low",10.9 mg/dL
same,Cl,"45 mg/kg, 3 h, dose level Low",105.6 meq/L
same,DBIL,"45 mg/kg, 3 h, dose level Low",0.066 mg/dL
same,GLC,"45 mg/kg, 3 h, dose level Low",244.4 mg/dL
same,IP,"45 mg/kg, 3 h, dose level Low",10.2 mg/dL
same,K,"45 mg/kg, 3 h, dose level Low",3.8 meq/L
same,LDH,"45 mg/kg, 3 h, dose level Low",210 IU/L
same,Na,"45 mg/kg, 3 h, dose level Low",144.8 meq/L
same,PL,"45 mg/kg, 3 h, dose level Low",151 mg/dL
same,RALB,"45 mg/kg, 3 h, dose level Low",3.5 g/dL
same,TBIL,"45 mg/kg, 3 h, dose level Low",0.1 mg/dL
same,TC,"45 mg/kg, 3 h, dose level Low",77.8 mg/dL
same,TG,"45 mg/kg, 3 h, dose level Low",77 mg/dL
same,TP,"45 mg/kg, 3 h, dose level Low",5.4 g/dL
same,gamma-GTP,"45 mg/kg, 3 h, dose level Low",1 IU/L
same,TERMINAL_BW,"45 mg/kg, 6 h, dose level Low",214.5 g
same,Bas,"45 mg/kg, 6 h, dose level Low",0.2%
same,Eos,"45 mg/kg, 6 h, dose level Low",1%
same,Fbg,"45 mg/kg, 6 h, dose level Low",221.8 mg/dL
same,Hb,"45 mg/kg, 6 h, dose level Low",12.5 g/dL
same,Ht,"45 mg/kg, 6 h, dose level Low",36.9%
same,Lym,"45 mg/kg, 6 h, dose level Low",69.4%
same,MCH,"45 mg/kg, 6 h, dose level Low",21 pg
same,MCHC,"45 mg/kg, 6 h, dose level Low",34%
same,MCV,"45 mg/kg, 6 h, dose level Low",62 fL
same,Mono,"45 mg/kg, 6 h, dose level Low",2.2%
same,Neu,"45 mg/kg, 6 h, dose level Low",26%
same,PT,"45 mg/kg, 6 h, dose level Low",12 s
same,Plat,"45 mg/kg, 6 h, dose level Low",129.9 x10_4/uL
same,RBC,"45 mg/kg, 6 h, dose level Low",596.2 x10_4/ul
same,Ret,"45 mg/kg, 6 h, dose level Low",8.2%
same,WBC,"45 mg/kg, 6 h, dose level Low",48 x10_2/uL
same,KIDNEY_L,"45 mg/kg, 6 h, dose level Low",1 g
same,KIDNEY_R,"45 mg/kg, 6 h, dose level Low",0.9 g
same,KIDNEY_TOTAL,"45 mg/kg, 6 h, dose level Low",1.9 g
same,LIVER,"45 mg/kg, 6 h, dose level Low",9.4 g
same,ALP,"45 mg/kg, 6 h, dose level Low",861 IU/L
same,ALT,"45 mg/kg, 6 h, dose level Low",29.6 IU/L
same,AST,"45 mg/kg, 6 h, dose level Low",68.4 IU/L
same,BUN,"45 mg/kg, 6 h, dose level Low",8.6 mg/dL
same,CRE,"45 mg/kg, 6 h, dose level Low",0.4 mg/dL
same,Ca,"45 mg/kg, 6 h, dose level Low",10.5 mg/dL
same,Cl,"45 mg/kg, 6 h, dose level Low",106.4 meq/L
same,DBIL,"45 mg/kg, 6 h, dose level Low",0.07 mg/dL
same,GLC,"45 mg/kg, 6 h, dose level Low",249.6 mg/dL
same,IP,"45 mg/kg, 6 h, dose level Low",10.8 mg/dL
same,K,"45 mg/kg, 6 h, dose level Low",3.6 meq/L
same,LDH,"45 mg/kg, 6 h, dose level Low",219.6 IU/L
same,Na,"45 mg/kg, 6 h, dose level Low",144.8 meq/L
same,PL,"45 mg/kg, 6 h, dose level Low",138.2 mg/dL
same,RALB,"45 mg/kg, 6 h, dose level Low",3.4 g/dL
same,TBIL,"45 mg/kg, 6 h, dose level Low",0.1 mg/dL
same,TC,"45 mg/kg, 6 h, dose level Low",79.2 mg/dL
same,TG,"45 mg/kg, 6 h, dose level Low",19.2 mg/dL
same,TP,"45 mg/kg, 6 h, dose level Low",5.4 g/dL
same,gamma-GTP,"45 mg/kg, 6 h, dose level Low",1 IU/L

# Reference: ChEMBL document CHEMBL3885861, “Open TG-GATES”
